Data as given in US9115122B2, “Non-ATP dependent inhibitors of extracellular signal-regulated kinase (ERK)” (UNIVERSITY OF MARYLAND, BALTIMORE, priority 2012, dated 2015).

Key:
Test in all cases: Cell proliferation WST-1 assay, single dose (Example 4)
Format in all cases: cell-based
Conditions in all cases: 100 μM, 48 hours
A375 melanoma cells = tested on: A375 melanoma cells
Protocol: (§1) In addition, compounds were tested in RPMI-7951 cells, which also contain mutated BRaf and are resistant to BRaf inhibitors due to the overexpression of MAP3K8 (the gene encoding COT/Tp12) that provides an alternative mechanism to indirectly or directly activate ERK proteins. […] For comparison, HeLa cervical carcinoma and Jurkat T-cell leukemia cells, which are p53 defective cancer cell lines but contain no known activating mutations in the ERK pathway, were studied. […] Cell proliferation was evaluated by water soluble tetrazolium-1 (WST-1) assay as previously described. Briefly, cells (˜5000/well) were seeded in 96 well plates, allowed to recover for 16-20 hours, and then treated with the indicated test compound for 48 hours. After incubation, WST-1 reagent was added and absorbance was read at 450 nm with background subtraction taken at 650 nm. Values were normalized to the control (DMSO only treated) cells.

HL-60 leukemic cells = tested on: HL-60 leukemic cells
Protocol: as §1

[1] = tested on: HeLa cervical carcinoma cells
Protocol: as §1

[2] = tested on: Jurkat T-cell leukemia cells
Protocol: as §1

RPMI-7951 melanoma cells = tested on: RPMI-7951 melanoma cells
Protocol: as §1

SK-MEL-28 melanoma cells = tested on: SK-MEL-28 melanoma cells
Protocol: as §1

Row | Compound | Cell Viability (% of Vehicle) A375 (A375 melanoma cells) | Cell Viability (% of Vehicle) HL-60 (HL-60 leukemic cells) | Cell Viability (% of Vehicle) HeLa [1] | Cell Viability (% of Vehicle) Jurkat [2] | Cell Viability (% of Vehicle) RPMI-7951 (RPMI-7951 melanoma cells) | Cell Viability (% of Vehicle) SK-MEL-28 (SK-MEL-28 melanoma cells)
1 | CCOc1ccc(/C=C2\SC(=O)N(CCNS(=O)(=O)c3ccc(C#N)cc3)C2=O)cc1 [Compound 27b, (Z)-4-cyano-N-(2-(5-(4-ethoxybenzylidene)-2,4-dioxothiazolidin-3-yl)ethyl)benzenesulfonamide] | 109 ± 6 % of Vehicle | 101 ± 52 % of Vehicle | 90 ± 4 % of Vehicle | 103 ± 3 % of Vehicle | 99 ± 4 % of Vehicle | 95 ± 3 % of Vehicle
2 | CCCN1C(=O)S/C(=C\c2ccc(OCC)cc2)C1=O [Compound 28d, (Z)-5-(4-ethoxybenzylidene)-3-propylthiazolidine-2,4-dione] | 119 ± 5 % of Vehicle | 80 ± 26 % of Vehicle | 96 ± 4 % of Vehicle | 101 ± 5 % of Vehicle | 116 ± 10 % of Vehicle | 101 ± 3 % of Vehicle
3 | CCOc1ccc(/C=C2\SC(=O)NC2=O)cc1 [Compound 2, (Z)-5-(4-ethoxybenzylidene)thiazolidine-2,4-dione] | 110 ± 10 % of Vehicle | 103 ± 16 % of Vehicle | 98 ± 13 % of Vehicle | 104 ± 4 % of Vehicle | 144 ± 2 % of Vehicle | 103 ± 1 % of Vehicle
4 | CCOc1ccc(/C=C2\SC(=O)N(CCNC(=O)OCC(C)C)C2=O)cc1 [Compound 26c, (Z)-isobutyl (2-(5-(4-ethoxybenzylidene)-2,4-dioxothiazolidin-3-yl)ethyl)carbamate] | 102 ± 4 % of Vehicle | 80 ± 28 % of Vehicle | 95 ± 3 % of Vehicle | 110 ± 4 % of Vehicle | 75 ± 12 % of Vehicle | 94 ± 1 % of Vehicle
5 | CCOc1ccc(/C=C2\SC(=O)N(CCNCc3ccccc3)C2=O)cc1 [Compound 23d, (Z)-3-(2-(benzylamino)ethyl)-5-(4-ethoxybenzylidene)thiazolidine-2,4-dione] | 13 ± 1 % of Vehicle | 5.0 ± 2 % of Vehicle | 37 ± 1 % of Vehicle | 89 ± 4 % of Vehicle | 2.5 ± 0.3 % of Vehicle | 25 ± 6 % of Vehicle
6 | CCOc1ccc(/C=C2\SC(=O)N(Cc3ccc([N+](=O)[O-])cc3)C2=O)cc1 [Compound 28n, (Z)-5-(4-ethoxybenzylidene)-3-(4-nitrobenzyl)thiazolidine-2,4-dione] | 117 ± 3 % of Vehicle | 97 ± 23 % of Vehicle | 97 ± 9 % of Vehicle | 101 ± 9 % of Vehicle | 119 ± 13 % of Vehicle | 104 ± 3 % of Vehicle
7 | CCOc1ccc(/C=C2\SC(=O)N(CCNC(C)=O)C2=O)cc1 [Compound 25a, (Z)—N-(2-(5-(4-ethoxybenzylidene)-2,4-dioxothiazolidin-3-yl)ethyl)acetamide] | 121 ± 4 % of Vehicle | 106 ± 23 % of Vehicle | 100 ± 11 % of Vehicle | 105 ± 8 % of Vehicle | 124 ± 5 % of Vehicle | 105 ± 2 % of Vehicle
8 | CCOc1ccc(/C=C2\SC(=O)N(CCNC(=O)OC)C2=O)cc1 [Compound 26a, (Z)-methyl (2-(5-(4-ethoxybenzylidene)-2,4-dioxothiazolidin-3-yl)ethyl)carbamate] | 96 ± 4 % of Vehicle | 104 ± 31 % of Vehicle | 84 ± 4 % of Vehicle | 97 ± 7 % of Vehicle | 102 ± 4 % of Vehicle | 88 ± 3 % of Vehicle
9 | NCCN1C(=O)S/C(=C\c2ccccc2O)C1=O [Compound 30i, (Z)-3-(2-aminoethyl)-5-(2-hydroxybenzylidene)thiazolidine-2,4-dione] | 78 ± 3 % of Vehicle | 24 ± 8 % of Vehicle | 68 ± 3 % of Vehicle | 99 ± 5 % of Vehicle | 102 ± 10 % of Vehicle | 85 ± 9 % of Vehicle
10 | CCOc1ccccc1/C=C1\SC(=O)N(CCN)C1=O [Compound 30c, (Z)-3-(2-aminoethyl)-5-(2-ethoxybenzylidene)thiazolidine-2,4-dione] | 22 ± 9 % of Vehicle | 8.9 ± 4 % of Vehicle | 39 ± 3 % of Vehicle | 66 ± 5 % of Vehicle | 45 ± 2 % of Vehicle | 52 ± 11 % of Vehicle
11 | CCOc1ccc(/C=C2\SC(=O)N(CCNC)C2=O)cc1 [Compound 23a, (Z)-5-(4-ethoxybenzylidene)-3-(2-(methylamino)ethyl)thiazolidine-2,4-dione] | 95 ± 2 % of Vehicle | 17 ± 11 % of Vehicle | 85 ± 4 % of Vehicle | 83 ± 6 % of Vehicle | 54 ± 7 % of Vehicle | 91 ± 1 % of Vehicle
12 | NCCN1C(=O)S/C(=C\c2ccccc2)C1=O [Compound 30a, (Z)-3-(2-aminoethyl)-5-benzylidenethiazolidine-2,4-dione] | 82 ± 9 % of Vehicle | 28 ± 20 % of Vehicle | 82 ± 10 % of Vehicle | 88 ± 4 % of Vehicle | 89 ± 17 % of Vehicle | 88 ± 7 % of Vehicle
13 | CCOc1ccc(/C=C2\SC(=O)N(CCO)C2=O)cc1 [Compound 28e, (Z)-5-(4-ethoxybenzylidene)-3-(2-hydroxyethyl)thiazolidine-2,4-dione] | 116 ± 4 % of Vehicle | 91 ± 19 % of Vehicle | 91 ± 2 % of Vehicle | 101 ± 4 % of Vehicle | 137 ± 8 % of Vehicle | 91 ± 1 % of Vehicle
14 | CCOc1ccc(/C=C2\SC(=O)N(CC(=O)O)C2=O)cc1 [Compound 28h, (Z)-2-(5-(4-ethoxybenzylidene)-2,4-dioxothiazolidin-3-yl)acetic acid] | 122 ± 6 % of Vehicle | 97 ± 27 % of Vehicle | 104 ± 3 % of Vehicle | 108 ± 3 % of Vehicle | 133 ± 9 % of Vehicle | 106 ± 1 % of Vehicle
15 | CCOc1ccc(/C=C2\SC(=O)N(CCNC(=O)OC(C)(C)C)C2=O)cc1 [Compound 26b, (Z)-tert-butyl (2-(5-(4-ethoxybenzylidene)-2,4-dioxothiazolidin-3-yl)ethyl)carbamate] | 88 ± 3 % of Vehicle | 95 ± 21 % of Vehicle | 88 ± 5 % of Vehicle | 111 ± 9 % of Vehicle | 67 ± 4 % of Vehicle | 83 ± 5 % of Vehicle
16 | CCOc1ccc(/C=C2\SC(=O)N(Cc3ccc(C(=O)O)cc3)C2=O)cc1 [Compound 28q, (Z)-4-((5-(4-ethoxybenzylidene)-2,4-dioxothiazolidin-3-yl)methyl)benzoic acid] | 2.0 ± 0.5 % of Vehicle | 84 ± 37 % of Vehicle | 64 ± 2 % of Vehicle | 85 ± 3 % of Vehicle | 34 ± 3 % of Vehicle | 59 ± 13 % of Vehicle
17 | CCOc1ccc(/C=C2\SC(=O)N(CCNCC(C)C)C2=O)cc1 [Compound 23c, (Z)-5-(4-ethoxybenzylidene)-3-(2-(isobutylamino)ethyl)thiazolidine-2,4-dione] | 1.0 ± 0.1 % of Vehicle | 10 ± 4 % of Vehicle | 3.7 ± 0.4 % of Vehicle | 2.5 ± 0.1 % of Vehicle | 1.0 ± 0.1 % of Vehicle | 1.3 ± 0.1 % of Vehicle
18 | CCOc1ccc(/C=C2\SC(=O)N(Cc3cccnc3)C2=O)cc1 [Compound 28k, (Z)-5-(4-ethoxybenzylidene)-3-(pyridin-3-ylmethyl)thiazolidine-2,4-dione] | 105 ± 4 % of Vehicle | 65 ± 12 % of Vehicle | 80 ± 2 % of Vehicle | 98 ± 2 % of Vehicle | 102 ± 2 % of Vehicle | 79 ± 4 % of Vehicle
